Measurements as given in US12349677B2, “Antimicrobial composition” (CONOPCO, INC., priority 2018, dated 2025).

Tested on: E. coli ATCC 10536
Assay: In-vitro antibacterial efficacy (bacteria remaining after 4 hours contact, plate count)
Type: cell-based
Conditions: contact time 4 hours at 37° C.
Protocol: The following samples were tested for in-vitro antibacterial efficacy using the below mentioned protocol
Sodium phosphate buffer 10 mM for culture preparation pH 7.4
The test organism was subcultured from the glycerol stock (stored at −70° C.) onto a TSA slant and incubated at 37° C. for 18 to 24 hours. The slant was stored in a refrigerator for a maximum of two weeks after which a fresh slant was prepared.
The test organisms were streaked from TSA slants onto petri plates containing TSA and incubated at 37° C. for 21 to 22 hours before use.
The bacterial inoculums were prepared corresponding to 10^6 cells in 10 mM Sodium Phosphate Buffer from the above plate.
The OD of culture was adjusted to 0.8 for E. coli, to give 10^8 cells/ml. Once the bacterial inoculums corresponding to 10^8 cells is prepared in sodium phosphate buffer, it is serially diluted to 10^6 cells ([…] in 10 mM sodium phosphate buffer)
135 μl bacterial inoculums (from 10^6 CFU/ml) was taken for all the treatments in a reaction volume of 300 μl (in a microtiter plate/96 well plate).
15 μl of 100 mM buffer was taken for all controls and treatments so that the final conc. corresponds to ˜5 mM in all the reactions.
The respective compounds/actives to be tested were taken and made up to a volume of 300 μl with autoclaved distilled water.
Note: Each treatment is kept in duplicates.
The microtiter plate was incubated at 37° C. for a contact time of 4 hours and then plated on TSA after required serial dilutions in neutralizer D/E to study bacterial kill.
Plates were incubated overnight for E. coli
The colonies were counted to estimate the bacteria remaining and thereby the log kill.
Experiments similar to the ones carried out for thymol+THPE were carried out with carvacrol+THPE. The antibacterial efficacy was measured in vitro as detailed above for examples 1 and A-C.
Experiments similar to the ones carried out for thymol+THPE were carried out with eugenol+THPE. The antibacterial efficacy was measured in vitro as detailed above for examples 1 and A-C.

[1] = Table 5, eugenol/THPE series, culture control 6.23
[2] = Table 4, carvacrol/THPE series, culture control 6.41
[3] = Table 1, thymol/THPE series, culture control 6.36

Q: How did the “Average of bacteria remaining” value [1] turn out when C=CCc1ccc(O)c(OC)c1 [J, Eugenol] was run?
A: 6.15 log cfu/ml

Q: For Cc1ccc(C(C)C)cc1O [F, carvacrol], which “Average of bacteria remaining” value [2] is on record?
A: 6.12 log cfu/ml

Q: For CC(O)CN(CCN(CC(C)O)CC(C)O)CC(C)O (stereo not shown) [G, tetrahydroxypropyl ethylenediamine], which “Average of bacteria remaining” value [2] is on record?
A: 5.97 log cfu/ml

Q: Cc1ccc(C(C)C)c(O)c1 [C, thymol] was tested. Which “Average of bacteria remaining” value [3] did it give?
A: 6.26 log cfu/ml

Q: CC(O)CN(CCN(CC(C)O)CC(C)O)CC(C)O (stereo not shown) [H, tetrahydroxypropyl ethylenediamine] was tested. Which “Average of bacteria remaining” value [2] did it give?
A: 5.45 log cfu/ml

Q: Which “Average of bacteria remaining” value [3] does the source give for CC(O)CN(CCN(CC(C)O)CC(C)O)CC(C)O (stereo not shown) [B, tetrahydroxypropyl ethylenediamine] here?
A: 5.98 log cfu/ml

Q: Which “Average of bacteria remaining” value [1] does the source give for CC(O)CN(CCN(CC(C)O)CC(C)O)CC(C)O (stereo not shown) [K, tetrahydroxypropyl ethylenediamine] here?
A: 5.44 log cfu/ml
